Data: ChEMBL document CHEMBL1782049, “The synthesis and evaluation of a novel class of (E)-3-(1-cyclohexyl-1H-pyrazol-3-yl)-2-methylacrylic acid hepatitis C virus polymerase NS5B inhibitors” (Bioorg Med Chem Lett, 2011)

Key:
[1] = system: Hepatitis C virus; assay: Inhibition of Hepatitis C virus subtype 1b NS5B activity assessed as inhibition of poly(A)n.oligo(dT)12-18-directed incorporation of [3H]-UTP into […] after 45 mins
[2] = system: Hepatitis C virus; assay: Antiviral activity against Hepatitis C virus subtype 1b infected in human Huh7 cells by replicon assay; format: functional, organism-based, Hepacivirus hominis; conditions: genotype 1b, Huh-7
[3] = Therapeutic index, ratio of CC50 for human HuH cells to EC50 for Hepatitis C virus subtype 1b; format: cell-based; conditions: read-out: Ratio CC50/EC50
[4] = system: Hepatitis C virus; assay: Antiviral activity against Hepatitis C virus subtype 1b harboring NS5B P495A mutant infected in human Huh7 cells by replicon assay; format: functional, organism-based, Hepacivirus hominis; conditions: genotype 1b, Huh-7

Compound	IC50 [1]	EC50 [2]	selectivity ratio [3]	EC50 [4]
C/C(=C\c1cc(-c2ccc(OCc3cc(C(=O)N(C)C)ccc3-c3ccc(Cl)cc3)cc2)n(C2CCCCC2)n1)C(=O)O	460 nM	1900 nM		
C/C(=C\c1cc(-c2ccc(OCc3cc(C(=O)N4CCC(O)CC4)ccc3-c3ccc(Cl)cc3)cc2)n(C2CCCCC2)n1)C(=O)O	440 nM			
C/C(=C\c1nn(C2CCCCC2)c(-c2ccc(OCc3cc(C(=O)N4CCC(O)CC4)ccc3-c3ccc(Cl)cc3)cc2)c1Br)C(=O)O	650 nM	700 nM		
C/C(=C\c1cc(-c2ccc(OCc3cc(C(=O)N(C)C)ccc3-c3ccc(C#N)cc3)cc2)n(C2CCCCC2)n1)C(=O)O	820 nM			
C/C(=C\c1cc(-c2ccc(OCc3cc(C(=O)N4CCC(O)CC4)ccc3-c3ccc(C#N)cc3)cc2)n(C2CCCCC2)n1)C(=O)O	340 nM	400 nM	> 60	4000 nM
CNC(=O)c1ccc(-c2ccc(C(C)=O)s2)c(COc2ccc(-c3cc(/C=C(\C)C(=O)O)nn3C3CCCCC3)cc2)c1	2290 nM			
CC(=O)c1ccc(-c2ccc(C(=O)N(C)C)cc2COc2ccc(-c3cc(/C=C(\C)C(=O)O)nn3C3CCCCC3)cc2)s1	2700 nM			
CC(=O)c1ccc(-c2ccc(C(=O)N3CCOCC3)cc2COc2ccc(-c3cc(/C=C(\C)C(=O)O)nn3C3CCCCC3)cc2)s1	5200 nM			

Now from value to molecule, other results behind:

IC50 [1]	EC50 [2]	Compound	selectivity ratio [3]	EC50 [4]
790 nM		CNC(=O)c1ccc(-c2ccc(C#N)cc2)c(COc2ccc(-c3cc(/C=C(\C)C(=O)O)nn3C3CCCCC3)cc2)c1		
1620 nM		CNC(=O)c1ccc(-c2ccc(Cl)cc2)c(COc2ccc(-c3nc(/C=C(\C)C(=O)O)cn3C3CCCCC3)cc2)c1		
4030 nM		CNC(=O)c1ccc(-c2ccc(Cl)cc2)c(COc2ccc(-n3nc(/C=C(\C)C(=O)O)cc3C3CCCCC3)cc2)c1		
380 nM		CNC(=O)c1ccc(-c2ccc(Cl)cc2)c(COc2ccc(-c3cc(/C=C(\C)C(=O)O)nn3C3CCCCC3)cc2)c1		
1030 nM		C/C(=C\c1cc(-c2ccc(OCc3cc(C(=O)NCCO)ccc3-c3ccc(Cl)cc3)cc2)n(C2CCCCC2)n1)C(=O)O		
640 nM	300 nM	CNC(=O)c1ccc(-c2ccc(Cl)cc2)c(COc2ccc(-c3nc4cc(C(=O)O)ccc4n3C3CCCCC3)cc2)c1		
